Laboratory results taken from patent US20080045508A1, “SUBSTITUTED AMINOMETHYL BENZAMIDE COMPOUNDS” (priority 2006, published 2008).

Experiments:
[1] = molecular target: cloned human H3 receptor, stably expressed in SK-N-MC cells (Homo sapiens, UniProt Q9Y5N1); experiment: H3 receptor binding
rat brain SERT = rat brain SERT (Rattus norvegicus, UniProt P31652); experiment: biochemical
Description: The supernatant was removed and re-centrifuged at 15,000 rpm for 30 min. […] Membranes were incubated with 0.6 nM [^3H]-Citalopram plus/minus test compounds for 60 min at 25° C. and harvested by rapid filtration over GF/C glass fiber filters (pretreated with 0.3% polyethylenimine) followed by four washes with ice-cold buffer. Nonspecific binding was defined in the presence of 100 μM fluoxetine.

human H3 receptor = human H3 receptor (Homo sapiens, UniProt Q9Y5N1); experiment: Cyclic AMP accumulation (reporter gene assay, SK-N-MC cells)
Description: Sublines of SK-N-MC cells were created that expressed a reporter construct and the human H3 receptor. The reporter gene (β-galactosidase) is under the control of multiple cyclic AMP responsive elements. In 96-well plates, histamine was added directly to the cell media followed 5 min later by an addition of forskolin (5 μM final concentration). When appropriate, antagonists were added 10 min prior to agonist addition. After a 6-h incubation at 37° C., the media was aspirated and the cells washed with 200 μL of phosphate-buffered saline followed by a second aspiration. […] Color was developed using 25 μL of 1 mg/mL substrate solution (chlorophenolred β-D galactopyranoside; Roche Molecular Biochemicals, Indianapolis, Ind.).

[2] = molecular target: human SERT (HEK293 membranes) (Homo sapiens, UniProt P31645); experiment: biochemical
human SERT (HEK293 membranes), sequence (P31645 whole entry): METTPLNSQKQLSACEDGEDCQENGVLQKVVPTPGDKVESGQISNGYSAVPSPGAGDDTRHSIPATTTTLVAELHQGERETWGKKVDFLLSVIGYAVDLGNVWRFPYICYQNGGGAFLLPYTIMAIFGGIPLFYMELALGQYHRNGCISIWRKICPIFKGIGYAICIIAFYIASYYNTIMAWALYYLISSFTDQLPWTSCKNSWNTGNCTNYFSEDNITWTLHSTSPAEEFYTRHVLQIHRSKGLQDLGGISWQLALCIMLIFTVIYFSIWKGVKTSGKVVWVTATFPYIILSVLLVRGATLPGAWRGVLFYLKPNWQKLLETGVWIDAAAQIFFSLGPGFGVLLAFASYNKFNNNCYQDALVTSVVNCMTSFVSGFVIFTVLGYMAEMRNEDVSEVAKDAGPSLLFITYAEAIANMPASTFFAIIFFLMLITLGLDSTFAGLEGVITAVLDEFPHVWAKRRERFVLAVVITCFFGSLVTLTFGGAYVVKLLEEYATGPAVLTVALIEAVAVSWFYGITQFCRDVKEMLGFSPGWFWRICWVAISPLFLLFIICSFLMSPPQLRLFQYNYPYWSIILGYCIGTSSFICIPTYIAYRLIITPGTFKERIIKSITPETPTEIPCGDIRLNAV
Description: Homogenized HEK293 (Human Embryonic Kidney) membranes expressing the human SERT were incubated with ^3H-citalopram (SERT) at rt for 1 h in 50 mM Tris, 120 mM NaCl, 5 mM KCl (pH 7.4). Nonspecific binding was determined in the presence of 10 μM fluoxetine for the SERT. The membranes were washed and the radioactivity was counted as above.

rat brain SERT, sequence (P31652 whole entry): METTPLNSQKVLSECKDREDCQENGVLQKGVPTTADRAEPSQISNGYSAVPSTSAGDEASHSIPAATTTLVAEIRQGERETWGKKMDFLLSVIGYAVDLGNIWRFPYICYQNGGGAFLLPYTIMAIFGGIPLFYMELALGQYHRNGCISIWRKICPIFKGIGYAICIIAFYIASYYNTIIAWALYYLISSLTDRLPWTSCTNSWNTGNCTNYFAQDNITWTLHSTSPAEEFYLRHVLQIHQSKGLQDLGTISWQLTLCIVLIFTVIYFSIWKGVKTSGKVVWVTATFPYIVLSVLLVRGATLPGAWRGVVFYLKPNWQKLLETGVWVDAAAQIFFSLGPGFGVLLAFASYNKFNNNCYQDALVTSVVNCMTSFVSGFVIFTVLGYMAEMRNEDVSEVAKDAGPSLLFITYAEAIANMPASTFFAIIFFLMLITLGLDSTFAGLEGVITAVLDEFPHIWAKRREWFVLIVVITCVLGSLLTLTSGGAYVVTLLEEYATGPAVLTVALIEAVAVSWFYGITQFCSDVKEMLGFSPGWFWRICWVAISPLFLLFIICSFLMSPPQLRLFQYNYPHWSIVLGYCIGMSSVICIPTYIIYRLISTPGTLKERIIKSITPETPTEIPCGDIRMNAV
cloned human H3 receptor, stably expressed in SK-N-MC cells, sequence (Q9Y5N1 whole entry): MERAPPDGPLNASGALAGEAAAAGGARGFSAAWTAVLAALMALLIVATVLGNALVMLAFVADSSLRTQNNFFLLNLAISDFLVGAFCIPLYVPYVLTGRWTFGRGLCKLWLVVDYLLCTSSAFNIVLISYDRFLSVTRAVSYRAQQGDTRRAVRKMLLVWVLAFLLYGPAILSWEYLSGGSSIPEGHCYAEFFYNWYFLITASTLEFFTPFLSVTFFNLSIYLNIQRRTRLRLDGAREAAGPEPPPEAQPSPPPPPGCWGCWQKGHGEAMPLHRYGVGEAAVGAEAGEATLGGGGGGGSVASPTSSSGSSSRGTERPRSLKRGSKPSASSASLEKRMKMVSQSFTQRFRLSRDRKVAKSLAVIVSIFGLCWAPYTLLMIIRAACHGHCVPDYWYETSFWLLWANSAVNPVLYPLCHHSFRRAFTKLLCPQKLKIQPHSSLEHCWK
human H3 receptor, sequence (Q9Y5N1 whole entry): as above

| Structure (SMILES) | Ki [1] [nM] | Ki (rat brain SERT) [nM] | Kb (human H3 receptor) [nM] | Ki [2] [nM] |
| --- | --- | --- | --- | --- |
| CNCc1ccc(C(=O)N2CCCN(C3CC3)CC2)cc1Oc1ccc(Cl)c(Cl)c1 [Example 52, (4-Cyclopropyl-[1,4]diazepan-1-yl)-[3-(3,4-dichloro-phenoxy)-4-methylaminomethyl-phenyl]-methanone] | 6 | 17 |  |  |
| COCCN(CCOC)Cc1ccc(C(=O)N2CCCN(C3CC3)CC2)cc1OCc1ccccc1 [Example 54, (3-Benzyloxy-4-{[bis-(2-methoxy-ethyl)-amino]-methyl}-phenyl)-(4-cyclopropyl-[1,4]diazepan-1-yl)-methanone] | 2 |  |  |  |
| Cc1ccc(Oc2cc(C(=O)N3CCCN(C(C)C)CC3)ccc2CN(C)C)c(C)n1 [Example 49, [4-Dimethylaminomethyl-3-(2,6-dimethyl-pyridin-3-yloxy)-phenyl]-(4-isopropyl-[1,4]diazepan-1-yl)-methanone] | 11 | 2000 |  |  |
| CNCc1cc(C(=O)N2CCCN(C3CC3)CC2)ccc1Oc1cccc(Cl)c1Cl [Example 35, (4-Cyclopropyl-[1,4]diazepan-1-yl)-[4-(2,3-dichloro-phenoxy)-3-methylaminomethyl-phenyl]-methanone] | 2 | 15 |  |  |
| CN(Cc1cc(C(=O)N2CCCN(C3CC3)CC2)ccc1Oc1ccc(Cl)cc1)C1CC1 [Example 34, {4-(4-Chloro-phenoxy)-3-[(cyclopropyl-methyl-amino)-methyl]-phenyl}-(4-cyclopropyl-[1,4]diazepan-1-yl)-methanone] | 2 | 62 |  |  |
| O=C(c1ccc(CN2CCOCC2)c(Oc2cccnc2)c1)N1CCCN(C2CC2)CC1 [Example 51, (4-Cyclopropyl-[1,4]diazepan-1-yl)-[4-morpholin-4-ylmethyl-3-(pyridin-3-yloxy)-phenyl]-methanone] | 3 |  |  |  |
| CNCc1cc(C(=O)N2CCCN(C3CC3)CC2)ccc1Oc1ccc(F)cc1Cl [Example 33, [4-(2-Chloro-4-fluoro-phenoxy)-3-methylaminomethyl-phenyl]-(4-cyclopropyl-[1,4]diazepan-1-yl)-methanone] | 0.9 | 28 |  |  |
| CNCc1cc(C(=O)N2CCCN(C3CC3)CC2)ccc1OCc1ccc(Cl)c(Cl)c1 [Example 42, (4-Cyclopropyl-[1,4]diazepan-1-yl)-[4-(3,4-dichloro-benzyloxy)-3-methylaminomethyl-phenyl]-methanone] | 4 | 2 |  |  |
| CNCc1cc(C(=O)N2CCCN(C3CC3)CC2)ccc1Sc1ccc(Cl)cc1 [Example 37, [4-(4-Chloro-phenylsulfanyl)-3-methylaminomethyl-phenyl]-(4-cyclopropyl-[1,4]diazepan-1-yl)-methanone] | 2 | 5 |  |  |
| O=C(c1ccc(CNC2CC2)c(Oc2cccnc2)c1)N1CCCN(C2CC2)CC1 [Example 40, [4-Cyclopropylaminomethyl-3-(pyridin-3-yloxy)-phenyl]-(4-cyclopropyl-[1,4]diazepan-1-yl)-methanone] | 2 | 5000 | 0.501 |  |
| Cc1ccc(Oc2ccc(C(=O)N3CCCN(C4CC4)CC3)cc2CN(C)C)cn1 [Example 36, (4-Cyclopropyl-[1,4]diazepan-1-yl)-[3-dimethylaminomethyl-4-(6-methyl-pyridin-3-yloxy)-phenyl]-methanone] | 2 | 59 |  |  |
| O=C(c1ccc(CN2CCCCC2)c(Oc2cccnc2)c1)N1CCCN(C2CC2)CC1 [Example 41, (4-Cyclopropyl-[1,4]diazepan-1-yl)-[4-piperidin-1-ylmethyl-3-(pyridin-3-yloxy)-phenyl]-methanone] | 1 | 10000 | 0.0631 |  |
| CNCc1cc(C(=O)N2CCCN(C3CC3)CC2)ccc1Sc1ccccn1 [Example 38, (4-Cyclopropyl-[1,4]diazepan-1-yl)-[3-methylaminomethyl-4-(pyridin-2-ylsulfanyl)-phenyl]-methanone] | 2 | 5000 |  |  |
| CC(C)N1CCCN(C(=O)c2ccc(CN3CCCCC3)c(OCc3ccccc3)c2)CC1 [Example 50, (3-Benzyloxy-4-piperidin-1-ylmethyl-phenyl)-(4-isopropyl-[1,4]diazepan-1-yl)-methanone] | 9 |  |  |  |
| CNCc1cc(C(=O)N2CCCN(C3CCC3)CC2)ccc1Oc1ccc(Cl)c(Cl)c1 [Example 48, (4-Cyclobutyl-[1,4]diazepan-1-yl)-[4-(3,4-dichloro-phenoxy)-3-methylaminomethyl-phenyl]-methanone] | 5.2 | 7.9 |  | 9.8 |
| CC(C)N1CCCN(C(=O)c2ccc(CN3CCOC(CO)C3)c(Oc3ccccc3)c2)CC1 (stereo not shown) [Example 53, [4-(2-Hydroxymethyl-morpholin-4-ylmethyl)-3-phenoxy-phenyl]-(4-isopropyl-[1,4]diazepan-1-yl)-methanone] | 3 |  |  |  |
| CNCc1cc(C(=O)N2CCCN(C3CC3)CC2)ccc1Sc1cc(C(F)(F)F)ccn1 [Example 47, (4-Cyclopropyl-[1,4]diazepan-1-yl)-[3-methylaminomethyl-4-(4-trifluoromethyl-pyridin-2-ylsulfanyl)-phenyl]-methanone] | 4 | 410 |  |  |
| CNCc1cc(C(=O)N2CCCN(C3CC3)CC2)ccc1Oc1ccccn1 [Example 39, (4-Cyclopropyl-[1,4]diazepan-1-yl)-[3-methylaminomethyl-4-(pyridin-2-yloxy)-phenyl]-methanone] | 0.9 | 15 |  |  |
| CNCc1cc(C(=O)N2CCCN(C3CC3)CC2)ccc1Oc1cccc(F)c1F [Example 32, (4-Cyclopropyl-[1,4]diazepan-1-yl)-[4-(2,3-difluoro-phenoxy)-3-methylaminomethyl-phenyl]-methanone] | 0.6 | 31 |  |  |
